Data taken from ChEMBL document CHEMBL4011620, “Design and Discovery of N-(2-Methyl-5'-morpholino-6'-((tetrahydro-2H-pyran-4-yl)oxy)-[3,3'-bipyridin]-5-yl)-3-(trifluoromethyl)benzamide (RAF709): A Potent, Selective, and Efficacious RAF Inhibitor Targeting RAS Mutant Cancers” (J Med Chem, 2017).
In brackets after ≈: the same amount, converted by molar mass. Activity calls are given as the source filed them. The rule behind the calls is not given here.

Tests used:
[1] = test system: PC-3; assay: Antitumor activity against human PC3 cells xenografted in nude mouse assessed as reduction in tumor volume at 200 mg/kg/day, po dosed on day 12 continued until day 25 post implantation; format: functional, organism-based
[2] = Cmax in mouse at 3 mg/kg, po; format: ADME, organism-based; parameters: dose 3 mg/kg, route oral; settings: in vivo
[3] = test system: Calu-6; assay: Antitumor activity against human Calu6 cells xenografted in nude mouse assessed as effect on tumor volume at 30 mg/kg/day, po administered for 15 days starting on day 12 post tumor implantation measured on day 27 relative to control; format: functional
[4] = AUC (infinity) in rat at 10 mg/kg, po; format: ADME, organism-based; parameters: dose 10 mg/kg, route oral, time infinity; settings: in vivo
[5] = test system: Mus musculus; assay: In vivo inhibition of ERK1/2 phosphorylation at Thr202/Tyr204 and Thr185/Tyr187 in mouse xenografted with human Calu6 cells at 10 to 30 mg/kg, po administered as single dose measured at 24 hrs post dose; format: functional, organism-based
[6] = Protein binding in rat plasma; format: ADME, cell-free; settings: read-out: PPB (converted)
[7] = Clearance in dog at 0.3 mg/kg, iv or 1 mg/kg, po; format: ADME, organism-based, Canis lupus familiaris; settings: in vivo
[8] = AUC (infinity) in mouse at 3 mg/kg, po; format: ADME, organism-based; parameters: dose 3 mg/kg, route oral, time infinity; settings: in vivo
[9] = Metabolic stability in rat plasma after 3 hrs; format: ADME, cell-free; settings: read-out: Stability
[10] = Volume of distribution at steady state in rat at 3 mg/kg, iv or 10 mg/kg, po; format: ADME, organism-based; settings: in vivo, read-out: Vdss
[11] = test system: Mus musculus; assay: In vivo inhibition of ERK phosphorylation at Thr202/Tyr204 and Thr185/Tyr187 in po dosed mouse xenografted with human Calu6 cells administered as single dose measured after 1 to 24 hrs post dose; format: functional, organism-based
[12] = test system: Mus musculus; assay: Time during which free plasma concentration exceeds cellular in vitro EC50 for CRAF-mediated ERK phosphorylation in mouse xenografted with human Calu6 cells at 200 mg/kg, po administered as single dose
[13] = Protein binding in human plasma; format: ADME, cell-free; settings: read-out: PPB (converted)
[14] = target: T1, Discoidin domain-containing receptor 2 (Homo sapiens) (UniProt Q16832); assay: Binding affinity to human DDR2 (555 to 855 residues) expressed in mammalian expression system at 1 uM by kinome scan assay relative to control
T1 sequence (whole entry): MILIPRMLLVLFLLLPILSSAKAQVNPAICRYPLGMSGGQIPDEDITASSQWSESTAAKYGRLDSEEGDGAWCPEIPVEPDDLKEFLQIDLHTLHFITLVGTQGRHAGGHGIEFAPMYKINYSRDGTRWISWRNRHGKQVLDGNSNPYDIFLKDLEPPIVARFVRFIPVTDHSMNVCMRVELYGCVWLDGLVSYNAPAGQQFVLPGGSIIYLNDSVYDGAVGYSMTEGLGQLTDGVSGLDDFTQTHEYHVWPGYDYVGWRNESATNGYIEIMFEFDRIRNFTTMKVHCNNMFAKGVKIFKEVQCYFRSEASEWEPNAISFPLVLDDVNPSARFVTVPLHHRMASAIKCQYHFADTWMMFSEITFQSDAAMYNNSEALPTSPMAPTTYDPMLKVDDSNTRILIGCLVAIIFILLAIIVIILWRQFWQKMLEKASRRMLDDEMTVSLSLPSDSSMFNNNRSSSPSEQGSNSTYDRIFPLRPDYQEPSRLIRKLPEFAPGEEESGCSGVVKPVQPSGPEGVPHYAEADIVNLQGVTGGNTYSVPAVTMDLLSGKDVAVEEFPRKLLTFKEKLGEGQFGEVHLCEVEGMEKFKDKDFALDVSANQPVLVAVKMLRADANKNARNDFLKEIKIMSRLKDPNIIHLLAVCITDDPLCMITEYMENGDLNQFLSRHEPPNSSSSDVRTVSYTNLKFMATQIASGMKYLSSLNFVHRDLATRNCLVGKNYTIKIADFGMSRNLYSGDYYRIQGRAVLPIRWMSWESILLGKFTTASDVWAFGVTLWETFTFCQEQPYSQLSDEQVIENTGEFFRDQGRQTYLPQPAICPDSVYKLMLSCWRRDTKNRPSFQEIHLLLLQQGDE

[15] = Solubility of compound at pH 6.8 by shake-flask assay; settings: buffer
[16] = target: Platelet-derived growth factor receptor alpha (Homo sapiens) (UniProt P16234); assay: Binding affinity to human PDGFRalpha (330 to 640 residues) expressed in mammalian expression system at 1 uM by kinome scan assay relative to control
Platelet-derived growth factor receptor alpha (Homo sapiens), sequence (P16234 whole entry, the tested form may be a part): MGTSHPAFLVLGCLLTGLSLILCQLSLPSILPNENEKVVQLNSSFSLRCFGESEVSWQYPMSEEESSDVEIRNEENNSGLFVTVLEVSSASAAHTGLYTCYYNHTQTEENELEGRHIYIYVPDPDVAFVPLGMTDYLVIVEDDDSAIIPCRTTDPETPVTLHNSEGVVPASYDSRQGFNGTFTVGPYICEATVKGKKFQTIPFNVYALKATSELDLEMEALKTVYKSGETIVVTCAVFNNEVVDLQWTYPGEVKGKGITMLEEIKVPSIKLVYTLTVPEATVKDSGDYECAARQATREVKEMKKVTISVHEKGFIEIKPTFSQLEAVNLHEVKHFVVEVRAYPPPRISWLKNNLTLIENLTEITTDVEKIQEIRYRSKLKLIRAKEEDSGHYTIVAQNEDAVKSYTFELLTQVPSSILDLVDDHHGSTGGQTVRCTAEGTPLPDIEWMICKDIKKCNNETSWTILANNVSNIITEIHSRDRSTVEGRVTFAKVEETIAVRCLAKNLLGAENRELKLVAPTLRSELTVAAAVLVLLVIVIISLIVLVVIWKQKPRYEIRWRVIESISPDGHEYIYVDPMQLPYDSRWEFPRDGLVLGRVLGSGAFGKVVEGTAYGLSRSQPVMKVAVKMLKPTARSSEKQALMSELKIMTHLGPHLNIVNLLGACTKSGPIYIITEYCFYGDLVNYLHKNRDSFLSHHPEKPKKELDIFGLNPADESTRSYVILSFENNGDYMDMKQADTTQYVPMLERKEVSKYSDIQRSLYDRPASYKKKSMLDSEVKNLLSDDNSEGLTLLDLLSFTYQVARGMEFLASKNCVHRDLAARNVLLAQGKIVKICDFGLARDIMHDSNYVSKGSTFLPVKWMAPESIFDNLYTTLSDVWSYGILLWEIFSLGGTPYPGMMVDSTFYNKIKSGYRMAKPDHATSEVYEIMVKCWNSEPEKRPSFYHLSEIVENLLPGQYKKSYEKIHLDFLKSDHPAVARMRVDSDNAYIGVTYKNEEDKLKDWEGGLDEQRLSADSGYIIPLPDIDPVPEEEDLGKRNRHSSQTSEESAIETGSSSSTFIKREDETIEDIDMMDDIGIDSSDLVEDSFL

[17] = test system: Calu-6; assay: Antiproliferative activity against human Calu6 cells harboring KRAS Q61K mutant assessed as reduction cell viability after 72 hrs by CellTiter-Glo assay; format: functional, cell-based; settings: Calu-6, 72 h
[18] = test system: Calu-6; assay: Antitumor activity against human Calu6 cells xenografted in nude mouse assessed as tumor regression at 200 mg/kg/day, po administered for 15 days starting on day 12 post tumor implantation measured on day 27 relative to control; format: functional
[19] = target: Serine/threonine-protein kinase B-raf (Homo sapiens, UniProt P15056); assay: Binding affinity to human BRAF (429 to 741 residues) expressed in mammalian expression system at 1 uM by kinome scan assay relative to control
Serine/threonine-protein kinase B-raf, sequence (P15056 whole entry, the tested form may be a part): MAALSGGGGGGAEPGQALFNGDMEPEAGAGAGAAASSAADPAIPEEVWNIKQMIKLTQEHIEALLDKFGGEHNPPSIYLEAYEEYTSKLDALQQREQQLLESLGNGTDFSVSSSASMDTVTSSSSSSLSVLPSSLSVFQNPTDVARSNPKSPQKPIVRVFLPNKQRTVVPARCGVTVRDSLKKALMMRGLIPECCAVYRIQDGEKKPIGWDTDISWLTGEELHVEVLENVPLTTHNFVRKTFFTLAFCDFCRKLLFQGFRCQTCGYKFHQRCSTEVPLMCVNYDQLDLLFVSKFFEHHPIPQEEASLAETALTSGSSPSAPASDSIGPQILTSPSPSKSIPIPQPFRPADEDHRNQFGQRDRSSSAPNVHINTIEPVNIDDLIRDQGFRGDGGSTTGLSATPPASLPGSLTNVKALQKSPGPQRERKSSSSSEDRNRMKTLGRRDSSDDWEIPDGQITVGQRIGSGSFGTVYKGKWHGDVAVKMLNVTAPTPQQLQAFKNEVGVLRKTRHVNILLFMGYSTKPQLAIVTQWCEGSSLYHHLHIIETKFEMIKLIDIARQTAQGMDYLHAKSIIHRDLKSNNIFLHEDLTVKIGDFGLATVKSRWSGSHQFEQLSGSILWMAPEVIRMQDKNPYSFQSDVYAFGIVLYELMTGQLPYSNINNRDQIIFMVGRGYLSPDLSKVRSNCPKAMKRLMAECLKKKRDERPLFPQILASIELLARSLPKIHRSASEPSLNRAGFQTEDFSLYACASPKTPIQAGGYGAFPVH

[20] = test system: Plasma; assay: Plasma concentration in po dosed mouse xenografted with human Calu6 cells administered as single dose measured after 1 to 24 hrs post dose by LC-MS analysis; format: ADME, organism-based; settings: in vivo
[21] = test system: Plasma; assay: Plasma concentration in mouse xenografted with human Calu6 cells at 10 mg/kg, po administered as single dose measured at 24 hrs post dose by LC-MS analysis; format: ADME, organism-based; settings: in vivo, BLD = below limit of detection
[22] = test system: Mus musculus; assay: Toxicity in nude mouse xenografted with human PC3 cells assessed as body weight loss at 200 mg/kg/day, po administered from day 12 until day 25 post tumor implantation measured twice per week of compound dosing; format: organism-based; settings: in vivo
[23] = Oral bioavailability in dog at 1 mg/kg; format: ADME, organism-based, Canis lupus familiaris; settings: in vivo
[24] = test system: Mus musculus; assay: In vivo inhibition of ERK phosphorylation at Thr202/Tyr204 and Thr185/Tyr187 in mouse xenografted with human Calu6 cells at 10 mg/kg, po administered as single dose measured at 24 hrs post dose; format: functional, organism-based
[25] = test system: Serine/threonine-protein kinase B-raf (Homo sapiens), P15056 [V600E]; assay: Binding affinity to human BRAF V600E mutant (429 to 741 residues) expressed in mammalian expression system at 1 uM by kinome scan assay relative to control
Serine/threonine-protein kinase B-raf (Homo sapiens), P15056 [V600E], sequence (P15056 whole entry V600E, the tested form may be a part): as the sequence (P15056 whole entry, the tested form may be a part) above, with V600E counted along it

[26] = test system: Mus musculus; assay: Toxicity in nude mouse xenografted with human PC3 cells assessed as mortality at 200 mg/kg/day, po administered from day 12 until day 25 post tumor implantation; format: organism-based; settings: in vivo
[27] = test system: Mus musculus; assay: Toxicity in nude mouse xenografted with human Calu6 cells assessed as mortality at 10 to 200 mg/kg/day, po administered for 15 days starting on day 12 post tumor implantation; format: organism-based; settings: in vivo, 360 h
[28] = target: RAF proto-oncogene serine/threonine-protein kinase (Homo sapiens, UniProt P04049); assay: Activation of CRAF in human Calu6 cells assessed as increase in MEK phosphorylation after 2 hrs by FRET assay; format: cell-based
RAF proto-oncogene serine/threonine-protein kinase, sequence (P04049 whole entry): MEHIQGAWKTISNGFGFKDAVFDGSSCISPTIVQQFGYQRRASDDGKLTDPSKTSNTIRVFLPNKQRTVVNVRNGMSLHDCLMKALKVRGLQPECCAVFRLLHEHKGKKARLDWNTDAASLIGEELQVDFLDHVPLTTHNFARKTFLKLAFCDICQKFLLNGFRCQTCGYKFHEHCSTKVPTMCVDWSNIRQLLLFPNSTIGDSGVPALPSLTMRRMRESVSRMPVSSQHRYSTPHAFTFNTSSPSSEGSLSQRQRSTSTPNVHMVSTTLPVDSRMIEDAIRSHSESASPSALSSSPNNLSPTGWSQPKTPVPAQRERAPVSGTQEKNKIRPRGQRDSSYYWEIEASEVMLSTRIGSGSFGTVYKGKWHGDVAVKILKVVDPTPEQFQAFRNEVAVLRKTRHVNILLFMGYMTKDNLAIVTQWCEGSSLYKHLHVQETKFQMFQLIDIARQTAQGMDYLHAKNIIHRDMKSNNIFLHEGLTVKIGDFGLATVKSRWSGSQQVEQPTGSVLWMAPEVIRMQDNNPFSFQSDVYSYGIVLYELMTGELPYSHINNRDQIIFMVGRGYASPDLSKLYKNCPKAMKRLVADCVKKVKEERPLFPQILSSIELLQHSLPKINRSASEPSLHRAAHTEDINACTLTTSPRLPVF

[29] = Metabolic stability in dog plasma after 3 hrs; format: ADME, cell-free, Canis lupus familiaris; settings: read-out: Stability
[30] = test system: Mus musculus; assay: In vivo inhibition of ERK1/2 phosphorylation at Thr202/Tyr204 and Thr185/Tyr187 in mouse xenografted with human Calu6 cells at 200 mg/kg, po administered as single dose measured up to 24 hrs post dose; format: functional; settings: Calu-6, po

For `Cc1ncc(NC(=O)c2cccc(C(F)(F)F)c2)cc1-c1cnc(OC2CCOCC2)c(N2CCOCC2)c1`, which Activity [1] is on record?
Its Activity is “inactive”.

What about the Cmax [2] of the same compound?
Its Cmax is 1 µM.

What about the T/C [3] of the same compound?
The T/C was 46%.

And the AUC(0-inf) [4]?
Its AUC(0-inf) is 1500 nM·h.

And the inhibition [5]?
Its inhibition is “inactive”.

And the fraction unbound [6]?
The fraction unbound was 0.02.

And the clearance [7]?
The clearance was 0.84 L/h/kg.

What about the AUC(0-inf) [8] of the same compound?
The AUC(0-inf) was 1700 nM·h.

What about the remaining at 3 h [9] of the same compound?
The remaining at 3 h was 85%.

And the Vd [10]?
Its Vd is 3.5 L/kg.

What about the inhibition [11] of the same compound?
Its inhibition is “Dose-dependent effect”.

And the Time [12]?
The Time was 24 h.

And the fraction unbound [13]?
Its fraction unbound is 0.02.

And the Activity [14]?
The Activity was 86%.

What about the solubility thermodynamic [15] of the same compound?
The solubility thermodynamic was 200 µM (≈ 109 µg/mL).

What about the Activity [16] of the same compound?
Its Activity is 96%.

And the EC50 [17]?
The EC50 was 0.95 µM.

What about the Activity [18] of the same compound?
Its Activity is 92%.

And the Activity [19]?
The Activity was over 99%.

What about the Drug uptake [20] of the same compound?
The Drug uptake was “Dose-dependent effect”.

And the Cp [21]?
The Cp was “Bld”.

And the Activity [22]?
Its Activity is “Non-Toxic”.

And the bioavailability [23]?
Its bioavailability is 48%.

And the inhibition [24]?
The inhibition was “inactive”.

What about the Activity [25] of the same compound?
Its Activity is over 99%.

What about the Activity [26] of the same compound?
The Activity was “Non-Toxic”.

And the Activity [27]?
The Activity was “Non-Toxic”.

And the Activity [28]?
The Activity was “Not Active”.

What about the remaining at 3 h [29] of the same compound?
The remaining at 3 h was 95%.

What about the inhibition in vivo at 200 mg/kg [30] of the same compound?
The inhibition in vivo at 200 mg/kg was at least 70%.
